Results published in patent US20250026722A1, “SUBSTITUTED QUINOLINES AS IMPROVED NF-KB-INDUCING KINASE (NIK) INHIBITORS” (YUKIN THERAPEUTICS, priority 2021, published 2025).

Key:
A375 cells [1] = assay: Proliferation assay in A375 cells (confocal imaging after seven days with compound); format: cell-based; conditions: Homo sapiens, A-375, 168 h, seven days in the presence of compounds
Procedure: (§1) A375 (American Type Culture Collection; CRL-1619) cells were seeded into 96 well plates (1,200 cells/well; Perkin Elmer; 6005225) and incubated overnight at 37° C., 5% CO2. Compounds prepared in media (Dulbecco's modified Eagle medium+10% foetal bovine serum+1% penicillin/streptomycin) were added to the cells and incubated for four days at 37° C., 5% CO2. Media was then aspirated from the cells and freshly prepared compounds were added to the cells, which were then incubated for a further three days at 37° C., 5% CO2. After a total of seven days in the presence of compounds, media was removed, and the cells were labelled with Hoechst (1 in 1,000; Thermo Fisher; 62249), TOTO™-3 (1 in 10,000; Thermo Fisher; T3604) and SPiDER βGAL (1.0 μM; Sigma-Aldrich; 94433) prepared in Hanks' Balanced Salt Solution supplemented with 1.0 mM HEPES buffer for 20 minutes at 37° C. Cells were imaged by confocal microscopy using an ImageXpress (Molecular Devices) at ×10 magnification. Images were analysed using MetaXpress software (Molecular Devices).

A375 cells [2] = assay: Senescence assay in A375 cells (SPiDER βGAL labelling, confocal imaging after seven days with compound); format: cell-based; conditions: Homo sapiens, A-375, 168 h, seven days in the presence of compounds
Procedure: as §1

NIK [3] = biological target: T1, NIK (Homo sapiens, UniProt Q99558); assay: NIK degradation Western-blot experiments in A375 cells; format: cell-based; conditions: 10 μM for 72 hrs, 5 μM MG132 during last 4 hours
T1 construct: endogenous in cells; host or cells: A375 cells
Procedure: A375 cells were plated in 6-well dishes at 2,000 cells/cm^2. The day after, cells were treated for 72 hrs with compounds of the examples at 10 μM. Cells were treated during the last 4 hours of the treatment period with 5 μM MG132 to inhibit proteasomal degradation. For protein isolation, cells were washed twice with PBS and then lysed using RIPA Buffer (1×) containing protease and phosphatase inhibitors. Following sonication, the lysate was centrifuged at 20,000 g for 10 min at 4° C. and the supernatants were collected and assayed for protein concentration using the BCA kit (Pierce).
Total protein (20 μg) was separated by electrophoresis on 10% SDS-polyacrylamide gels and transferred to PVDF membranes (Millipore). Blocking was performed in Tris-buffer saline containing 3% BSA. Membranes were incubated with the appropriate primary antibodies overnight at 4° C. (NIK, CST #4994, 1/2000) and β-actin (Santa-Cruz, sc-47778, 1/5000). After washing three times, membranes were incubated with horseradish peroxidase-conjugated secondary antibodies for 1 h. Bound antibodies were detected using an enhanced chemiluminescence plus kit (GE Healthcare). NIK degradation was tested and confirmed for the compounds of Examples 3, 4, 5, 6, 10 and 11 (see the corresponding table below). For illustration, the Western blot analysis of NIK degradation in cells treated with the compound of Example 3 (at 10 μM for 72 h) is shown in FIG. 1.

NIK [4] = biological target: T1, NIK; conditions: pan kinase inhibitor, literature; cited from earlier work

T1 sequence (Q99558 whole entry): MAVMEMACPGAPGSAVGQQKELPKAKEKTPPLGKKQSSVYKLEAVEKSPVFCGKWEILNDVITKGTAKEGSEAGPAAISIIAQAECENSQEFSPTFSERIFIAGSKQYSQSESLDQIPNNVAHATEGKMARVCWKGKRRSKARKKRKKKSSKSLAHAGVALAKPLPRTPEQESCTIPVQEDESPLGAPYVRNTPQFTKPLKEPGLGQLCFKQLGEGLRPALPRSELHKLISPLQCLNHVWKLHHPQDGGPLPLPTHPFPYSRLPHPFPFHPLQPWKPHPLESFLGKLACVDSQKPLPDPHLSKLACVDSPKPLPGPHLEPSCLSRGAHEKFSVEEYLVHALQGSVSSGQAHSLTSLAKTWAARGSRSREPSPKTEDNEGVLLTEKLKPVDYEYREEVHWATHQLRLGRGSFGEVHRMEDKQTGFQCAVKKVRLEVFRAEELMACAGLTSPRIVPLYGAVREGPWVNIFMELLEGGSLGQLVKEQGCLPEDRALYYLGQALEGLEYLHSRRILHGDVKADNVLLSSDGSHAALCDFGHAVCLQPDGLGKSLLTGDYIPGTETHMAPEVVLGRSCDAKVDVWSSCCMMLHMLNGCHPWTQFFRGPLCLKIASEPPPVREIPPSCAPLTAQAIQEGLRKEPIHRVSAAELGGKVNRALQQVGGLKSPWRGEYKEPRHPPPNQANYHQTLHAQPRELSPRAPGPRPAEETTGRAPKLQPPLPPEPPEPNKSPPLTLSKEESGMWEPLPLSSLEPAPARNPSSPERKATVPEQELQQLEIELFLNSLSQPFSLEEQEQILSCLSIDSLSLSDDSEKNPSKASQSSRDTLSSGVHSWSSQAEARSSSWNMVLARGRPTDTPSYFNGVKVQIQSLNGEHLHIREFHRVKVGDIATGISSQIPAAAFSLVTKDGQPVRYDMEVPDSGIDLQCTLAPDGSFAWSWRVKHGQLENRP

COCCOc1ccc(Nc2ccnc3cc(C(F)F)ccc23)cc1
IC50 (A375 cells [1]): 1740 nM
EC50 (A375 cells [2]): 2310 nM

COCCOc1ccc(Nc2ccnc3cc(C)ccc23)cc1
IC50 (A375 cells [1]): 1900 nM
EC50 (A375 cells [2]): 2460 nM

COCCOc1ccc(Nc2ccnc3cc(OC)ccc23)c(OC)c1 [Example 3, 7-methoxy-N-(2-methoxy-4-(2-methoxyethoxy)phenyl)quinolin-4-amine]
NIK degradation activity (NIK [3]): confirmed

COCCOc1ccc(Nc2ccnc3cc(-c4cnn(C)c4)ccc23)c(OC)c1 [Example 4, N-(2-methoxy-4-(2-methoxyethoxy)phenyl)-7-(1-methyl-1H-pyrazol-4-yl)quinolin-4-amine]
NIK degradation activity (NIK [3]): confirmed

COCCOc1ccc(Nc2ccnc3cc(C4=CCN(C)CC4)ccc23)c(OC)c1 [Example 5, N-(2-methoxy-4-(2-methoxyethoxy)phenyl)-7-(1-methyl-1,2,3,6-tetrahydropyridin-4-yl)quinolin-4-amine]
NIK degradation activity (NIK [3]): confirmed

COCCOc1ccc(Nc2ccnc3cc(N4CCN(C)CC4)ccc23)c(OC)c1 [Example 6, N-(2-methoxy-4-(2-methoxyethoxy)phenyl)-7-(4-methylpiperazin-1-yl)quinolin-4-amine]
NIK degradation activity (NIK [3]): confirmed

COCCOc1ccc(Nc2ccnc3cc(C(F)F)ccc23)c(OC)c1 [Example 9, 7-(difluoromethyl)-N-(2-methoxy-4-(2-methoxyethoxy)phenyl)quinolin-4-amine]
IC50 (A375 cells [1]): 205 nM
EC50 (A375 cells [2]): 200 nM

COCCOc1ccc(Nc2ccnc3cc(C)ccc23)c(OC)c1 [Example 10, N-(2-methoxy-4-(2-methoxyethoxy)phenyl)-7-methylquinolin-4-amine]
IC50 (A375 cells [1]): 195 nM
NIK degradation activity (NIK [3]): confirmed
EC50 (A375 cells [2]): 670 nM

COCCOc1ccc(Nc2ccnc3cc(C4CCN(C)CC4)ccc23)c(OC)c1 [Example 11, N-(2-methoxy-4-(2-methoxyethoxy)phenyl)-7-(1-methylpiperidin-4-yl)quinolin-4-amine]
NIK degradation activity (NIK [3]): confirmed

COCCOc1ccc(Nc2ccnc3cc(Cl)ccc23)cc1 [Reference compound (*), 7-chloro-N-(4-(2-methoxyethoxy)phenyl)quinolin-4-amine]
IC50 (A375 cells [1]): 1690 nM
EC50 (A375 cells [2]): 2490 nM

COc1ccc(Nc2ccnc3cc(Cl)ccc23)cc1O [Reference compound (**), 7-chloro-N-(3-(hydroxy)-4-(methoxy)phenyl)quinolin-4-amine]
IC50 (A375 cells [1]): > 10000 nM
EC50 (A375 cells [2]): > 10000 nM

CN[C@@H]1C[C@H]2O[C@@](C)([C@@H]1OC)n1c3ccccc3c3c4c(c5c6ccccc6n2c5c31)C(=O)NC4 [staurosporine]
inhibition of the kinase activity (NIK) (NIK [4]): micromolar level
